Test: in vivo
Conditions: rat, po

bioavailability: < 0.5%
SMILES: CCC[C@H](NC(=O)[C@@H]1[C@H]2CCC[C@H]2CN1C(=O)[C@@H](NC(=O)[C@@H](NC(=O)c1cnccn1)C1CCCCC1)C(C)(C)C)C(=O)C(=O)NC1CC1 [VX-950, Telaprevir]

Reference: patent publication US20100011610A1, “FLUIDIZED SPRAY DRYING” (Vertex Pharmaceuticals Incorporated, priority 2006, published 2010)
